Measured values as given in ChEMBL document CHEMBL1944551, “An integrated computational workflow for efficient and quantitative modeling of renin inhibitors” (Bioorg Med Chem, 2012).

Assay: physchem
Settings: octanol/buffer

logP | SMILES
5.56 | Cc1cc(Cl)c(OCCOc2ccc(N3C(=O)CNC[C@@H]3C(=O)N(Cc3cc(CCNC(=O)COC(C)(C)C)ccc3Cl)C3CC3)cn2)c(Cl)c1
5.33 | Cc1cc(Cl)c(OCCOc2ccc(N3C(=O)CNC[C@@H]3C(=O)N(Cc3cc(CCNCC(F)F)ccc3Cl)C3CC3)cn2)c(Cl)c1
5 | O=C(CC(F)(F)F)NCCc1ccc(Cl)c(CN(C(=O)[C@H]2CNCC(=O)N2c2ccc(COC(=O)c3ccccc3)cc2)C2CC2)c1
4.98 | Cc1cc(Cl)c(OCCOc2ccc(N3C(=O)CNC[C@@H]3C(=O)NCc3ccccc3Cl)cc2)c(Cl)c1
5.34 | CNC(=O)CCc1ccc(Cl)c(CN(C(=O)[C@H]2CNCC(=O)N2c2ccc(OCCOc3c(Cl)cc(C)cc3Cl)cc2)C2CC2)c1
4.82 | CNCc1ccc(Cl)c(CN(C(=O)[C@H]2CNCC(=O)N2c2ccc(OCCOc3c(Cl)cc(C)cc3Cl)nc2)C2CC2)c1
5.25 | COc1ccccc1COCCCOc1ccc(N2C(=O)CNC[C@@H]2C(=O)N(Cc2cc(CNC(=O)CC(F)(F)F)ccc2Cl)C2CC2)cc1
5.18 | Cc1cc(Cl)c(OCCOc2ccc(N3C(=O)CNC[C@@H]3C(=O)N(C)Cc3ccccc3Cl)cc2)c(Cl)c1
4.77 | CCNC(=O)Cc1ccc(Cl)c(CN(C(=O)[C@H]2CNCC(=O)N2c2ccc(OCCOc3c(Cl)cc(C)cc3Cl)nc2)C2CC2)c1
5.74 | COC(=O)NCCc1ccc(Cl)c(CN(C(=O)[C@H]2CNCC(=O)N2c2ccc(CCCOc3cccc(Cl)c3)cc2)C2CC2)c1
6.11 | Cc1cc(Cl)c(OCCOc2ccc(N3C(=O)CNC[C@@H]3C(=O)N(Cc3cc(CCNC(=O)CC(F)(F)F)ccc3Cl)C3CC3)cc2)c(Cl)c1
6.07 | Cc1cc(Cl)c(OCCOc2ccc(N3C(=O)CNC[C@@H]3C(=O)N(Cc3cc(CNCC(F)F)ccc3Cl)C3CC3)cc2)c(Cl)c1
5.94 | COCCc1ccc(Cl)c(CN(C(=O)[C@H]2CNCC(=O)N2c2ccc(CCCOc3c(F)ccc(F)c3F)cc2)C2CC2)c1
5.63 | CNCCc1ccc(Cl)c(CN(C(=O)[C@H]2CNCC(=O)N2c2ccc(CCCOc3c(F)ccc(F)c3F)cc2)C2CC2)c1
5.28 | Cc1cc(Cl)c(OCCOc2ccc(N3C(=O)CNC[C@@H]3C(=O)N(Cc3cc(CCNC(=O)CC(F)(F)F)ccc3Cl)C3CC3)cn2)c(Cl)c1
5.33 | COc1ccccc1COCCCOc1ccc(N2C(=O)CNC[C@@H]2C(=O)N(Cc2cc(CCNC(=O)CC(F)(F)F)ccc2Cl)C2CC2)cc1
5.49 | COc1cccc(CN(C(=O)[C@H]2CNCC(=O)N2c2ccc(OCCOc3c(Cl)cc(C)cc3Cl)cc2)C2CC2)c1C
4.91 | CNCCc1ccc(Cl)c(CN(C(=O)[C@H]2CNCC(=O)N2c2ccc(OCCOc3c(Cl)cc(C)cc3Cl)nc2)C2CC2)c1
5.56 | COC(=O)NCCc1ccc(Cl)c(CN(C(=O)[C@H]2CNCC(=O)N2c2ccc(CCCOc3c(F)ccc(F)c3F)cc2)C2CC2)c1
5.65 | Cc1cc(Cl)c(OCCOc2ccc(N3C(=O)CNC[C@@H]3C(=O)N(Cc3cc(CNC(=O)C4CC4)ccc3Cl)C3CC3)cc2)c(Cl)c1
5.83 | Cc1cc(Cl)c(OCCOc2ccc(N3C(=O)CNC[C@@H]3C(=O)N(Cc3ccccc3Cl)C3CC3)cc2)c(Cl)c1
5.25 | CCNCCc1ccc(Cl)c(CN(C(=O)[C@H]2CNCC(=O)N2c2ccc(OCCOc3c(Cl)cc(C)cc3Cl)nc2)C2CC2)c1
4.84 | COC(=O)NCCc1ccc(Cl)c(CN(C(=O)[C@H]2CNCC(=O)N2c2ccc(OCCOc3c(Cl)cc(C)cc3Cl)nc2)C2CC2)c1
5.01 | CNCCc1ccc(Cl)c(CN(C(=O)[C@H]2CNCC(=O)N2c2ccc(OCCCOCc3ccccc3)cc2)C2CC2)c1
5.08 | Cc1cc(Cl)c(OCCOc2ccc(N3C(=O)CNC[C@@H]3C(=O)N(Cc3cc(CC(=O)NC4CC4)ccc3Cl)C3CC3)cn2)c(Cl)c1
5.66 | CC(C)(C)OCC(=O)NCCc1ccc(Cl)c(CN(C(=O)[C@H]2CNCC(=O)N2c2ccc(OCCCOCc3ccccc3)cc2)C2CC2)c1
4.84 | CNC(=O)OCCc1ccc(Cl)c(CN(C(=O)[C@H]2CNCC(=O)N2c2ccc(OCCOc3c(Cl)cc(C)cc3Cl)nc2)C2CC2)c1

Continued, compound first:

SMILES | logP
CNC(=O)Cc1ccc(Cl)c(CN(C(=O)[C@H]2CNCC(=O)N2c2cnc(OCCCOCc3ccccc3OC)nc2)C2CC2)c1 | 2.47
COc1ccccc1COCCCOc1ncc(N2C(=O)CNC[C@@H]2C(=O)N(Cc2cccc(Cl)c2)C2CC2)cn1 | 3.09
CN(CCCc1ccccc1)C(=O)[C@H]1CNCC(=O)N1c1ccc(CCCOc2c(F)ccc(F)c2F)cc1 | 5.01
O=C([C@H]1CNCC(=O)N1c1ccc(CCCOc2c(F)ccc(F)c2F)cc1)N(Cc1cc(CCNCC(F)F)ccc1Cl)C1CC1 | 6.05
O=C([C@H]1CNCC(=O)N1c1ccc(CCCOc2cccc(Cl)c2)cc1)N(Cc1cc(CNCC(F)F)ccc1Cl)C1CC1 | 6.14
CNCc1ccc(Cl)c(CN(C(=O)[C@H]2CNCC(=O)N2c2ccc(CCCOc3c(F)ccc(F)c3F)cc2)C2CC2)c1 | 5.55
O=C(OCc1ccc(N2C(=O)CNC[C@@H]2C(=O)N(Cc2cccc(Cl)c2)C2CC2)cc1)c1ccccc1 | 4.77
COc1ccccc1COCCCOc1ccc(N2C(=O)CNC[C@@H]2C(=O)N(Cc2cc(CCNCC(F)F)ccc2Cl)C2CC2)cc1 | 5.38
COCCCc1cc(CN(C(=O)[C@H]2CNCC(=O)N2c2ccc(CCCOc3cccc(Cl)c3)cc2)C2CC2)c(Cl)cn1 | 5.29
CCNCCc1ccc(Cl)c(CN(C(=O)[C@H]2CNCC(=O)N2c2ccc(CCCOc3cccc(Cl)c3)cc2)C2CC2)c1 | 6.15
CNC(=O)Cc1ccc(Cl)c(CN(C(=O)[C@H]2CNCC(=O)N2c2ccc(OCCCOCc3ccccc3)cc2)C2CC2)c1 | 4.53
COc1c(CN(C(=O)[C@H]2CNCC(=O)N2c2ccc(CCCOc3cccc(Cl)c3)cc2)C2CC2)ccnc1C | 4.29
O=C([C@H]1CNCC(=O)N1c1ccc(OCCCOCc2ccccc2)cc1)N(Cc1cccc(Cl)c1)C1CC1 | 5.14
CCNCCc1ccc(Cl)c(CN(C(=O)[C@H]2CNCC(=O)N2c2cnc(OCCCOCc3ccccc3OC)nc2)C2CC2)c1 | 3.3
COc1ccccc1COCCCOc1ncc(N2C(=O)CNC[C@@H]2C(=O)N(Cc2cccc(OC)c2C)C2CC2)cn1 | 2.71
CN(Cc1ccccc1Cl)C(=O)[C@H]1CNCC(=O)N1c1ccc(CCCOc2c(F)ccc(F)c2F)cc1 | 5.07
CCNC(=O)Cc1ccc(Cl)c(CN(C(=O)[C@H]2CNCC(=O)N2c2ccc(COC(=O)c3ccccc3)cc2)C2CC2)c1 | 4.49
COc1ccccc1COCCCOc1ccc(N2C(=O)CNC[C@@H]2C(=O)N(Cc2cc(CC(=O)NC3CC3)ccc2Cl)C2CC2)cc1 | 5.14
CNCc1ccc(Cl)c(CN(C(=O)[C@H]2CNCC(=O)N2c2ccc(OCCCOCc3ccccc3OC)cc2)C2CC2)c1 | 4.88
COc1ccccc1COCCCOc1ccc(N2C(=O)CNC[C@@H]2C(=O)NCc2ccccc2Cl)cc1 | 4.21
Cc1cccc(CN(C(=O)[C@H]2CNCC(=O)N2c2ccc(COC(=O)c3ccccc3)cc2)C2CC2)c1C | 4.73
COc1ccccc1COCCCOc1ccc(N2C(=O)CNC[C@@H]2C(=O)N(C)CCc2ccccc2)cc1 | 3.9
CN(Cc1ccccc1)C(=O)[C@H]1CNCC(=O)N1c1ccc(COC(=O)c2ccccc2)cc1 | 3.49
O=C([C@H]1CNCC(=O)N1c1ccc(CCCOc2c(F)ccc(F)c2F)cc1)N(Cc1ccc(Cl)cc1)C1CC1 | 5.73

SMILES | logP
Cc1cc(Cl)c(OCCOc2ccc(N3C(=O)CNC[C@@H]3C(=O)N(C)CCCc3ccccc3)cc2)c(Cl)c1 | 5.12
CCNCc1ccc(Cl)c(CN(C(=O)[C@H]2CNCC(=O)N2c2ccc(CCCOc3c(F)ccc(F)c3F)cc2)C2CC2)c1 | 5.89
COCCCc1cc(CN(C(=O)[C@H]2CNCC(=O)N2c2ccc(OCCCOCc3ccccc3)cc2)C2CC2)c(Cl)c[n+]1[O-] | 4.71
CNCCc1ccc(Cl)c(CN(C(=O)[C@H]2CNCC(=O)N2c2ccc(COC(=O)c3ccccc3)cc2)C2CC2)c1 | 4.64
COc1ccccc1COCCCOc1ncc(N2C(=O)CNC[C@@H]2C(=O)N(Cc2cc(CCNC3CC3)ccc2Cl)C2CC2)cn1 | 3.61
O=C(Cc1ccc(Cl)c(CN(C(=O)[C@H]2CNCC(=O)N2c2ccc(COC(=O)c3ccccc3)cc2)C2CC2)c1)NC1CC1 | 4.81
O=C([C@H]1CNCC(=O)N1c1ccc(CCCOc2cccc(Cl)c2)cc1)N(Cc1ccc(Cl)cc1)C1CC1 | 5.91
O=C(NCc1ccc(Cl)c(CN(C(=O)[C@H]2CNCC(=O)N2c2ccc(CCCOc3cccc(Cl)c3)cc2)C2CC2)c1)C1CC1 | 5.72
O=C(NCc1ccc(Cl)c(CN(C(=O)[C@H]2CNCC(=O)N2c2ccc(CCCOc3c(F)ccc(F)c3F)cc2)C2CC2)c1)C1CC1 | 5.54
COc1ccccc1COCCCOc1ncc(N2C(=O)CNC[C@@H]2C(=O)N(C)Cc2ccccc2)cn1 | 1.8
COCCCc1ccc(Cl)c(CN(C(=O)[C@H]2CNCC(=O)N2c2ccc(CCCOc3cccc(Cl)c3)cc2)C2CC2)c1 | 6.56
Cc1ccccc1Cc1c(C(=O)N2CCNCC2)c2ccccc2n1-c1ccsc1 | 5.02
CCNCc1ccc(Cl)c(CN(C(=O)[C@H]2CNCC(=O)N2c2cnc(OCCCOCc3ccccc3OC)nc2)C2CC2)c1 | 3.21
CCNC(=O)Cc1ccc(Cl)c(CN(C(=O)[C@H]2CNCC(=O)N2c2ccc(OCCCOCc3ccccc3)cc2)C2CC2)c1 | 4.87
Cc1cc(Cl)c(OCCOc2ccc(N3C(=O)CNC[C@@H]3C(=O)N(C)CCCc3ccccc3)cn2)c(Cl)c1 | 4.29
CC(=O)NCc1ccc(Cl)c(CN(C(=O)[C@H]2CNCC(=O)N2c2ccc(OCCCOCc3ccccc3)cc2)C2CC2)c1 | 4.57
O=C(NCc1ccccc1Cl)[C@H]1CNCC(=O)N1c1ccc(OCCCOCc2ccccc2)cc1 | 4.26
O=C([C@H]1CNCC(=O)N1c1ccc(OCCCOCc2ccccc2)cc1)N(Cc1cc(CNCCF)ccc1Cl)C1CC1 | 5.04
COc1ccccc1COCCCOc1ccc(N2C(=O)CNC[C@@H]2C(=O)N(C)CCCc2ccccc2)cc1 | 4.35
COc1cccc(CN(C(=O)[C@H]2CNCC(=O)N2c2ccc(OCCCOCc3ccccc3)cc2)C2CC2)c1C | 4.76
CN(Cc1ccccc1Cl)C(=O)[C@H]1CNCC(=O)N1c1ccc(CCCOc2cccc(Cl)c2)cc1 | 5.25
COc1ccccc1COCCCOc1ncc(N2C(=O)CNC[C@@H]2C(=O)N(C)CCc2ccccc2)cn1 | 1.89
COc1ccccc1COCCCOc1ncc(N2C(=O)CNC[C@@H]2C(=O)N(Cc2cc(CNC3CC3)ccc2Cl)C2CC2)cn1 | 3.52
COc1cccc(CN(C(=O)[C@H]2CNCC(=O)N2c2ccc(OCCOc3c(Cl)cc(C)cc3Cl)nc2)C2CC2)c1C | 4.66
